Structures can show the parent of a compound that is named as a salt. Where two headings read alike, the source gives them in different places. Bridge positions count the residues as written; N and C are the ends. Ends that are not written are not given here.
How the values were obtained:
[1] = system: chronic renal failure (5/6Nx) rats; details: for Systolic blood pressure: tail-cuff
Description: Male Wistar rats of 8 weeks of age were used in the experiment. A Rat was anesthetized with petobarbital and ⅔ of the left kidney was cut off, and one week after the right kidney was removed completely. Two weeks after the ⅚ nephrectomy, systolic blood pressure (SBP) was measured by a tail-cuff method, and the urine was collected in a metabolic cage for 24 hours to measure the urinary protein excretion. Rats were divided into 3 groups (each group: n=9) so that no difference occurred between the respective groups. Thereafter, a solvent (0.5% MC) was orally administered to the ⅚Nx-Cont. group at a dose of 5 ml/kg over 8 weeks. […] Similarly, to the ⅚Nx-Ena. group was administered 10 mg/kg/day of enalapril maleate dissolved in a solvent (0.5% MC). On the other hand, the solvent (0.5% MC) alone was orally administered to the abdominal-sectioned rats as a control group (Sham). Every 2 weeks, the urine was collected for 24 hours to measure the urinary protein excretion. Additionally, every 4 weeks, SBP was measured to examine the effect on the blood pressure.
(§1) The results were indicated by the mean±error. In comparison between the Sham group and the ⅚Nx-Cont. group, a t-test was made without correspondence, and when the significant level is less than 5%, it is considered as a significant difference. In comparison between the ⅚Nx rat-drug groups, multiple comparison (Dunnett's test) was made respectively without correspondence following the variance analysis of one-way classification. When the significant level is less than 5%, it is considered as a significant difference.

[2] = system: diabetic rats induced by streptozotocin (STZ); assay: Effect on the blood parameter and urinary parameter in diabetic rats induced by streptozotocin (STZ); assay type: in vivo, Wistar (Crj) rats; details: for Blood glucose level: enalapril maleate 10 mg/kg p.o. once a day
Description: Wistar (Crj) rats of 9 weeks of age were divided into 5 groups so that there was no bias in urinary albumin excretion. To the 4 groups of the rats was administered intravenously STZ (50 mg/kg). […] After the lapse of 2, 4 and 6 weeks from the start of administration, urine was collected for 24 hours in a metabolic cage to measure a urinary parameter. The blood was collected from the tail vein after 2 and 4 weeks and from the abdominal aorta under anesthesia after 6 weeks to measure a blood parameter.
as §1, with “STZ-Cont.” for “⅚Nx-Cont.”, “STZ-dose groups of rats,” for “⅚Nx rat-drug groups,”

[3] = system: STZ-induced diabetic rats; details: cited from earlier work
[4] = system: rat's cultured mesangial cells; assay: Effect of ET on the growth and hypertrophy of rat's cultured mesangial cells; assay type: cell-based; details: for growth and hypertrophy of rat's cultured mesangial cells: depending on the concentration of 10^−12 to 10^−7M; for concentration of the maximum reaction (growth and hypertrophy): rat's cultured mesangial cells
Description: In measurement of the hypertrophy activity, the cells used in the measurement of the cell growth activity using an Alamar Blue reagent were washed 3 times with a phosphate buffer, to which cells was added a direct protein-determining reagent (BioRad) to measure the absorbance at 595 nm. The protein content was calculated from the analytical curve. The protein content per the unit cell number was given as the hypertrophy activity from the cell number obtained by measurement of the growth activity.
The results were indicated by the mean±error.

[5] = enalapril maleate 10 mg/kg p.o.
[6] = enalapril maleate 10 mg/kg p.o., 4 weeks
[7] = 5/6Nx rats, enalapril maleate 10 mg/kg/day p.o., 0 week
[8] = 5/6Nx rats, enalapril maleate 10 mg/kg/day p.o., 4 weeks
[9] = 5/6Nx rats, enalapril maleate 10 mg/kg/day p.o., 8 weeks
[10] = continuously injected intraperitoneally

Question: With `COc1ccccc1Oc1c(NS(=O)(=O)C=Cc2ccccc2)nc(-c2ncccn2)nc1OC` [Compound 1, N-[6-Methoxy-5-(2-methoxyphenoxy)-2-(pyrimidin-2-yl)pyrimidin-4-yl]-2-phenylethenesulfonamide] as the molecule, how does the “death cases (mortality in renal dysfunction cases)” value (shortened to “death cases”) ([1]; rat, in vivo, po, 1 mg/kg/day) read?
Answer: no death was observed

Question: For `CCOC(=O)[C@H](CCc1ccccc1)N[C@@H](C)C(=O)N1CCC[C@H]1C(=O)O` [Ena., enalapril maleate], which “inhibition of elevation of creatinine clearance (Ccr)” value [2, 5] is on record?
Answer: there was no tendency that elevation of Ccr was inhibited

Question: And the “urinary albumin excretion (UAE) change” value [2, 5]?
Answer: no UAE reduction was observed

Question: What about the Blood glucose level ([2]; 2 weeks) of the same molecule?
Answer: 403.0 ± 13.0 mg/dL

Question: And the Blood glucose level ([2]; 4 weeks)?
Answer: 393.2 ± 17.6 mg/dL

Question: What about the Blood glucose level ([2]; 6 weeks) of the same molecule?
Answer: 394.3 ± 9.6 mg/dL

Question: And the Urinary albumin excretion ([2]; enalapril maleate 10 mg/kg p.o., 0 week)?
Answer: 0.46 ± 0.04 mg/day

Question: What about the Urinary albumin excretion ([2]; enalapril maleate 10 mg/kg p.o., 2 weeks) of the same molecule?
Answer: 0.91 ± 0.13 mg/day

Question: What about the Blood cholesterol level [2, 6] of the same molecule?
Answer: 148.8 ± 11.2 mg/dL

Question: What about the Urinary albumin excretion [2, 6] of the same molecule?
Answer: 0.65 ± 0.14 mg/day

Question: And the blood triglyceride level [2, 6]?
Answer: 407.0 ± 35.7 mg/dL

Question: What about the Urinary albumin excretion ([2]; enalapril maleate 10 mg/kg p.o., 6 weeks) of the same molecule?
Answer: 1.27 ± 0.18 mg/day

Question: And the “hypotensive effect (SBP)” value ([1]; 5/6Nx rats, enalapril maleate 10 mg/kg/day p.o.)?
Answer: a hypotensive effect was markedly recognized

Question: What about the Urinary protein excretion [1, 7] of the same molecule?
Answer: 36.9 ± 4.7 mg/day

Question: What about the Systolic blood pressure [1, 7] of the same molecule?
Answer: 136 ± 4 mmHg

Question: What about the Urinary protein excretion ([1]; 5/6Nx rats, enalapril maleate 10 mg/kg/day p.o., 2 weeks) of the same molecule?
Answer: 45.5 ± 10.5 mg/day

Question: What about the Urinary protein excretion [1, 8] of the same molecule?
Answer: 78.4 ± 15.3 mg/day

Question: And the Systolic blood pressure [1, 8]?
Answer: 129 ± 8 mmHg

Question: What about the Urinary protein excretion ([1]; 5/6Nx rats, enalapril maleate 10 mg/kg/day p.o., 6 weeks) of the same molecule?
Answer: 165.1 ± 28.1 mg/day

Question: And the Urinary protein excretion [1, 9]?
Answer: 261.2 ± 43.2 mg/day

Question: And the Systolic blood pressure [1, 9]?
Answer: 124 ± 6 mmHg

Question: What about the “death cases” value ([1]; 5/6Nx rats, enalapril maleate 10 mg/kg/day p.o., 9 cases per group) of the same molecule?
Answer: 2

Question: What about the “death cases” value ([1]; 5/6Nx rats, enalapril maleate 10 mg/kg/day p.o., 9 cases per group, listed as enalapril) of the same molecule?
Answer: two death cases

Question: For `COc1ccccc1Oc1c(NS(=O)(=O)c2ccc(C(C)(C)C)cc2)nc(-c2ncccn2)nc1OCCO` [bosentan], which plasma glucose level [3] is on record?
Answer: do not change the plasma glucose level

Question: Which results are given for `COc1cc(OC)nc(O[C@H](C(=O)O)C(OC)(c2ccccc2)c2ccccc2)n1` [darusentan]?
Answer: blood triglyceride level ([3]; 100 mg/kg, p.o., decreased only in comparison with control group): decreases the blood triglyceride level; Blood glucose level ([3]; 100 mg/kg, p.o.): does not change the blood glucose level; microalbuminuria ([3]; 100 mg/kg/day for 160 days): has a tendency to reduce microalbuminuria

Question: For “ET-1: Endothelin iso-peptide, endogenous physiologically active peptide consisting of 21 amino acids (CSCSSLMDKECVYFCHLDIIW; disulfide 1-15, 3-11; ends not checked; UniProt P05305 53-73, looked up)”, which “growth and hypertrophy of rat's cultured mesangial cells” value [4] is on record?
Answer: promoted the growth and hypertrophy

Question: And the “concentration of the maximum reaction (growth and hypertrophy)” value [4]?
Answer: 10^−8 M

Question: With “ET-3: Endothelin iso-peptide, endogenous physiologically active peptide consisting of 21 amino acids (CTCFTYKDKECVYYCHLDIIW; disulfide 1-15, 3-11; ends not checked; UniProt P14138 97-117, looked up)” as the molecule, how does the “growth and hypertrophy of rat's cultured mesangial cells” value [4] read?
Answer: promoted the growth and hypertrophy

Question: And the “concentration of the maximum reaction (growth and hypertrophy)” value [4]?
Answer: 10^−8 M

Question: What does the source list for FR139317?
Answer: plasma glucose level [3]: do not change the plasma glucose level; excretion of microalbuminuria [3, 10]: reduces excretion of microalbuminuria; gene expression of the extracellular matrix of the glomerulus [3, 10]: inhibits gene expression of the extracellular matrix of the glomerulus
